Experimental data published in EP4741380A1, “ISOXAZOLINE COMPOUND AND USE” (priority 2024, dated 2025).
Like-named read-outs stand apart in the source and are kept apart here.

What was measured:
mites = test: Mite killing efficacy test with an in vitro model
Procedure: Mite collection: Live mites were gently picked up from a cage box with cotton swabs or small tweezers, 17-26 live mites per group.
Drug treatment and detection method: 100 µL of a drug solution with a different concentration (drug solution prepared by 3% DMSO solution + 97% water and having a target final concentration of 30 µM) was aspirated with a pipette and added to a 24-well plate for each group, ensuring full contact between the drug and the mites. The mites were separately incubated at normal temperature for 5 min, transferred from each plate to another dry 24-well plate with the top sealed, and air-dried for about 1 h. Mite actions were observed, and the number of dead mites/the total number of mites was recorded. Then, the 24-well plate containing the mites was cultured at room temperature and relatively high humidity. The number of dead mites/the total number of mites was counted separately after 1 h, 2 h, 4 h, 6 h, 8 h, 22 h, and 24 h (time points after drug addition), and mite mortality rates were calculated. The project ended 24 h after drug addition.
At a corresponding time point, a mite mortality rate greater than or equal to 90% is denoted as "+++", a mite mortality rate less than 90% and greater than or equal to 50% is denoted as "++", and a mite mortality rate less than 50% is denoted as "+".

[1] = In vivo pharmacokinetic evaluation in mice; set-up: species or system ICR mice; conditions: for AUC: read-out: AUC^1-24 h; for Vd: in vivo, read-out: Vss
Procedure: 1. Drug preparation: 5% DMSO + 10% macrogol 15 hydroxystearate (BASF) + 85% saline (where drug solutions have a final concentration of 1.2 mg/mL for the IV group and 3 mg/mL for the PO group). 2. Experimental animals: Each group included three mice (ICR mice, SPF grade). 3. Administration method: The body weight was measured before administration, and the dose was calculated according to the body weight. The mice were administered through intravenous injection or oral gavage. 4. Blood collection: After administration, blood samples were collected in 0.083 h, 0.25 h, 0.5 h, 1 h, 2 h, 4 h, 6 h, 8 h, and 24 h. The blood samples were collected via the cheek. Each sample included about 0.05 mL of blood anticoagulated with EDTA-2K. The blood samples were placed on wet ice after collection. 5. Sample treatment: The blood samples were placed on ice after collection and centrifuged within 1 h to obtain plasma (centrifugation conditions: 6000 g, 3 min, 2-8°C). Plasma samples were stored in a -80°C refrigerator before analysis. 6. Data processing: Pharmacokinetic parameters were calculated using Phoenix WinNonlin 8.2.0 based on plasma concentration data at different time points.

Borer = test: Killing efficacy test against agricultural pests: borer test (leaf dip); assay type: in vivo; conditions: after 72 h
Procedure: (§1) Solution preparation: 2 mg of a test compound was weighed and dissolved in 200 µL of acetone, and the sample was diluted with an aqueous solution containing 0.1% Tween 80 to a required concentration to obtain a test solution. 1. Diamondback moth test: The test sample was prepared into solutions with final concentrations of 0.0156 mg/L, 0.125 mg/L, and 1 mg/L. Fresh and clean rapeseed leaves were cut into small pieces of 3 cm × 3 cm. The leaf pieces were immersed in the solutions with different concentrations for 10s, taken out, and air-dried naturally. The treated leaf pieces were placed into Petri dishes lined with moistened filter paper. 20 third-instar larvae of the diamondback moth were introduced into each Petri dish. The Petri dishes were placed in a constant-temperature room, and mortality rates were checked after 72 h. 2. Aphid test: The test sample was prepared into solutions with final concentrations of 2 mg/L, 10 mg/L, and 50 mg/L. Fresh cotton leaves of uniform size were immersed in the solutions with different concentrations for 10s, air-dried, and placed backside up on culture plates. 100 wingless adult aphids were introduced into each culture plate. The culture plates were sealed with paper strips and placed in a constant-temperature room. Mortality rates were checked after 72 h. 3. Mite test: The test sample was prepared into solutions with final concentrations of 0.02 mg/L, 0.2 mg/L, and 2 mg/L. Filter paper treated with the test solutions was placed in Petri dishes, and about 30 mites were placed at the center of each Petri dish. 0.05 g of mite feed was added to the center of each Petri dish after 30 min. The Petri dishes were placed in a constant-temperature room, and mortality rates were checked after 72 h. 4. Borer test: The test sample was prepared into solutions with final concentrations of 0.125 mg/L, 0.5 mg/L, and 2 mg/L. Fresh leaves were cut, immersed in the solutions with different concentrations for 10s, taken out, and air-dried. The treated leaves were placed in Petri dishes, and 30 borer larvae were introduced into each Petri dish. The Petri dishes were placed in a constant-temperature room, and mortality rates were checked after 72 h.

Mite = test: Killing efficacy test against agricultural pests: mite test (treated filter paper); assay type: in vivo, mites; conditions: after 72 h
Procedure: as §1

Diamondback moth = test: Killing efficacy test against agricultural pests: diamondback moth test (leaf dip); assay type: in vivo; conditions: Plutella xylostella, foliar, read-out: Corrected Mortality Rate (%)
Procedure: as §1

Aphid = test: Killing efficacy test against agricultural pests: aphid test (leaf dip); assay type: in vivo, aphids; conditions: after 72 h
Procedure: as §1

[2] = 4 h, read-out: Mite Mortality Rate 4 h
[3] = 24 h, read-out: Mite Mortality Rate 24 h
[4] = ICR, mouse, IV (6 mg/kg), plasma
[5] = ICR, mouse, IV (6 mg/kg), plasma, read-out: C0
[6] = ICR, mouse, PO (30 mg/kg), plasma
[7] = ICR, mouse, PO (30 mg/kg), plasma, read-out: Cmax
[8] = ICR, mouse, PO (30 mg/kg), plasma, read-out: Tmax
[9] = ICR, mouse, plasma, PO (30 mg/kg) vs IV (6 mg/kg)
[10] = 30 µM drug solution, 4 h after drug addition, read-out: Mite Mortality Rate 4 h
[11] = 30 µM drug solution, 24 h after drug addition, read-out: Mite Mortality Rate 24 h
[12] = DiamondBack Moth, 0.0156 mg/L, after 72 h
[13] = DiamondBack Moth, 0.125 mg/L, after 72 h
[14] = DiamondBack Moth, 1 mg/L, after 72 h

| Structure (SMILES) | mortality at 30 µM (mites; [2]) | mortality at 30 µM (mites; [3]) | Corrected Mortality Rate (%) (Borer; 0.125 mg/L) | Corrected Mortality Rate (%) (Borer; 0.5 mg/L) | Corrected Mortality Rate (%) (Borer; 2 mg/L) | Corrected Mortality Rate (%) (Mite; 0.02 mg/L) | Corrected Mortality Rate (%) (Mite; 0.2 mg/L) | Corrected Mortality Rate (%) (Mite; 2 mg/L) | clearance [1, 4] | half-life [1, 4] | AUC [1, 4] | C0 [1, 5] | half-life [1, 6] | AUC [1, 6] | Cmax [1, 7] | Tmax [1, 8] | Vd [1, 4] | Corrected Mortality Rate (%) (Aphid; 2 mg/L) | Corrected Mortality Rate (%) (Aphid; 10 mg/L) | Corrected Mortality Rate (%) (Aphid; 50 mg/L) | also measured |
| --- | --- | --- | --- | --- | --- | --- | --- | --- | --- | --- | --- | --- | --- | --- | --- | --- | --- | --- | --- | --- | --- |
| Cc1cc(C2=NOC(c3cc(Cl)cc(Cl)c3)(C(F)(F)F)C2)ccc1C(=O)NCC(=O)NCC(F)(F)F (stereo not shown) [Fluralaner, fluralaner, reference compound] |  |  |  |  |  |  |  |  |  |  |  |  |  |  |  |  |  |  |  |  | Mite Mortality Rate 4 h (mites; 30 µM drug solution, 4 h after drug addition): +++ (a mite mortality rate greater than or equal to 90% is denoted as "+++"); Mite Mortality Rate 24 h (mites; 30 µM drug solution, 24 h after drug addition): +++ (a mite mortality rate greater than or equal to 90% is denoted as "+++"); AUC^1-24 h ([1]; IV (6 mg/kg), plasma): 22.972 µg·h/mL; C0 ([1]; IV (6 mg/kg), plasma): 7.151 µg/mL; CL ([1]; IV (6 mg/kg), plasma): 0.209 L/h/kg; T1/2 ([1]; IV (6 mg/kg), plasma): 11.9 h; Vss ([1]; IV (6 mg/kg), plasma): 2.87 L/kg; F (%) ([1]; PO (30 mg/kg) vs IV (6 mg/kg)): 81.42%; AUC^1-24 h ([1]; PO (30 mg/kg), plasma): 93.52 µg·h/mL; Cmax ([1]; PO (30 mg/kg), plasma): 8 µg/mL; T1/2 ([1]; PO (30 mg/kg), plasma): 15.2 h; Tmax ([1]; PO (30 mg/kg), plasma): 1.67 h |
| Cc1cc(C2=NO[C@@](c3cc(Cl)cc(Cl)c3)(C(F)(F)F)C2)ccc1C(=O)NCC(=O)NC1(C(F)(F)F)CC1 [Example 011, (S)-4-(5-(3,5-dichlorophenyl)-5-(trifluoromethyl)-4,5-dihydroisoxazol-3-yl)-2-methyl-N-(2-oxo-2-((1-(trifluoromethyl)cyclopropyl)amino)ethyl)benzamide] | > 90% | > 90% | 29% | 93% | 100% | 34% | 86% | 100% | 0.0708 L/h/kg | 20 h | 48.9 µg·h/mL | 6.8 µg/mL | 27.8 h | 231 µg·h/mL | 15.9 µg/mL | 2.67 h | 1.96 L/kg | 60% | 100% | 100% | mortality at 0.0156 µg/mL (Diamondback moth; 72 h): 0%; mortality at 0.125 µg/mL (Diamondback moth; 72 h): 100%; mortality at 1 µg/mL (Diamondback moth; 72 h): 100%; bioavailability [1, 9]: 94.6% |
| Cc1cc(C2=NOC(c3cc(Cl)c(Cl)c(C(F)(F)F)c3)(C(F)(F)F)C2)ccc1C(=O)NCC(=O)NC1(C(F)(F)F)CC1 (stereo not shown) [Example 029, 4-(5-(3,4-dichloro-5-(trifluoromethyl)phenyl)-5-(trifluoromethyl)-4,5-dihydroisoxazol-3-yl)-2-m ethyl-N-(2-oxo-2-((1-(trifluoromethyl)cyclopropyl)amino)ethyl)benzamide] |  |  | 0% | 50% | 100% | 54% | 70% | 100% |  |  |  |  |  |  |  |  |  | 5% | 100% | 100% | mortality at 30 µM (mites; [10]): > 90%; mortality at 30 µM (mites; [11]): > 90%; mortality at 0.0156 µg/mL (Diamondback moth; [12]): 0%; mortality at 0.125 µg/mL (Diamondback moth; [13]): 79%; mortality at 1 µg/mL (Diamondback moth; [14]): 100% |
| Cc1cc(C2=NOC(c3cc(C(F)(F)F)cc(C(F)(F)F)c3)(C(F)(F)F)C2)ccc1C(=O)NCC(=O)NC1(C(F)(F)F)CC1 (stereo not shown) [Example 030, 4-(5-(3,5-bis(trifluoromethyl)phenyl)-5-(trifluoromethyl)-4,5-dihydroisoxazol-3-yl)-2-methyl-N-(2-oxo-2-((1-(trifluoromethyl)cyclopropyl)amino)ethyl)benzamide] |  |  | 30% | 100% | 100% | 34% | 66% | 96% |  |  |  |  |  |  |  |  |  | 22% | 86% | 100% | mortality at 30 µM (mites; [10]): > 90%; mortality at 30 µM (mites; [11]): > 90%; mortality at 0.0156 µg/mL (Diamondback moth; [12]): 16%; mortality at 0.125 µg/mL (Diamondback moth; [13]): 63%; mortality at 1 µg/mL (Diamondback moth; [14]): 100% |
| Cc1cc(C2=NO[C@@](c3cc(Cl)cc(C(F)(F)F)c3)(C(F)(F)F)C2)ccc1C(=O)NCC(=O)NC1(C(F)(F)F)CC1 [Example 008, (S)-4-(5-(3-chloro-5-(trifluoromethyl)phenyl)-5-(trifluoromethyl)-4,5-dihydroisoxazol-3-yl)-2-m ethyl-N-(2-oxo-2-((1-(trifluoromethyl)cyclopropyl)amino)ethyl)benzamide] | > 90% | > 90% | 2% | 82% | 100% | 62% | 92% | 100% | 0.0428 L/h/kg | 37.6 h | 56.1 µg·h/mL | 10.3 µg/mL | 31.6 h | 233 µg·h/mL | 15.3 µg/mL | 9.33 h | 1.93 L/kg | 86% | 100% | 100% | mortality at 0.0156 µg/mL (Diamondback moth; 72 h): 5%; mortality at 0.125 µg/mL (Diamondback moth; 72 h): 100%; mortality at 1 µg/mL (Diamondback moth; 72 h): 100%; bioavailability [1, 9]: 83.1% |
| Cc1cc(C2=NOC(c3cc(Cl)cc(Cl)c3)(C(F)(F)F)C2)ccc1C(=O)NCC(=O)NC1CC1 (stereo not shown) [Example 39 (Comparative Example 1), N-(2-(cyclopropylamino)-2-oxoethyl)-4-(5-(3,5-dichlorophenyl)-5-(trifluoromethyl)-4,5-dihydroisoxazol-3-yl)-2-methylbenzamide, reference compound] | > 90% | > 90% |  |  |  |  |  |  | 0.124 L/h/kg | 12.3 h | 37.1 µg·h/mL | 7.8 µg/mL | 11.8 h | 173 µg·h/mL | 12.3 µg/mL | 3.33 h | 1.97 L/kg |  |  |  | bioavailability [1, 9]: 93.1% |
